Data: patent publication US4363922A, “Esters of antibiotic nodusmicin” (priority 1981, dated 1982)
In brackets after ≈: the same amount, converted by molar mass.

Each compound was assayed on S.aureus UC-570 (assay: Minimum Inhibitory Concentration, microplate broth-dilution, S. aureus UC-570). Conditions: Staphylococcus aureus, UC570, read-out: MIC S.aureus UC-570.
COC1CC2C=CC3C4OC2(C(C)=CC(C)C(C(C)O)OC1=O)C3C(O)C(C)C4OC(=O)c1ccc(C)[nH]1 (centres unmarked) [U-61,265, 9-O--5-Methylpyrrole-2-carbonyl] gave an MIC of 31.2 µg/mL (≈ 58.9 µM).

Same assay, conditions: Staphylococcus aureus, UC570, read-out: MIC S.aureus UC-570, BHI broth; sensitive strain
COC1CC2C=CC3C4OC2(C(C)=CC(C)C(C(C)O)OC1=O)C3C(O)C(C)C4O (centres unmarked) [U-59,761, nodusmicin] gave an MIC of 250 µg/mL (≈ 592 µM).
COC1CC2C=CC3C4OC2(C(C)=CC(C)C(C(C)OC(=O)c2ccc[nH]2)OC1=O)C3C(O)C(C)C4O (centres unmarked) [U-60,907, 18-O--Pyrrole-2-carbonyl] showed an MIC of 3.9 µg/mL (≈ 7.56 µM).
With COC1CC2C=CC3C4OC2(C(C)=CC(C)C(C(C)O)OC1=O)C3C(O)C(C)C4OC(=O)c1cccn1C (centres unmarked) [U-60,988, 9-O--N--Methylpyrrole-2-carbonyl-] the MIC was > 250 µg/mL.
COC1CC2C=CC3C4OC2(C(C)=CC(C)C(C(C)O)OC1=O)C3C(O)C(C)C4OC(=O)c1ccc([N+](=O)[O-])[nH]1 (centres unmarked) [U-61,427, 9-O--5-Nitropyrrole-2-carbonyl-] gave an MIC of 250 µg/mL (≈ 446 µM).
For COC1CC2C=CC3C4OC2(C(C)=CC(C)C(C(C)O)OC1=O)C3C(O)C(C)C4OC(=O)c1cc([N+](=O)[O-])c[nH]1 (centres unmarked) [U-61,462, 9-O--4-Nitropyrrole-2-carbonyl-], the MIC was 31.2 µg/mL (≈ 55.7 µM).

Each compound was assayed on S.aureus UC-746 (assay: Minimum Inhibitory Concentration, microplate broth-dilution, S. aureus UC-746). Conditions: Staphylococcus aureus, UC746, read-out: MIC S.aureus UC-746.
COC1CC2C=CC3C4OC2(C(C)=CC(C)C(C(C)O)OC1=O)C3C(O)C(C)C4OC(=O)c1ccc(C)[nH]1 (centres unmarked) [U-61,265, 9-O--5-Methylpyrrole-2-carbonyl] showed an MIC of 31.2 µg/mL (≈ 58.9 µM).

Same assay, conditions: Staphylococcus aureus, UC746, read-out: MIC S.aureus UC-746, BHI broth; strain resistant to tetracycline
For COC1CC2C=CC3C4OC2(C(C)=CC(C)C(C(C)O)OC1=O)C3C(O)C(C)C4O (centres unmarked) [U-59,761, nodusmicin], the MIC was 250 µg/mL (≈ 592 µM).
In the case of COC1CC2C=CC3C4OC2(C(C)=CC(C)C(C(C)OC(=O)c2ccc[nH]2)OC1=O)C3C(O)C(C)C4O (centres unmarked) [U-60,907, 18-O--Pyrrole-2-carbonyl], the MIC is reported as 15.6 µg/mL (≈ 30.3 µM).
With COC1CC2C=CC3C4OC2(C(C)=CC(C)C(C(C)O)OC1=O)C3C(O)C(C)C4OC(=O)c1cccn1C (centres unmarked) [U-60,988, 9-O--N--Methylpyrrole-2-carbonyl-] the MIC was 250 µg/mL (≈ 472 µM).
Compound COC1CC2C=CC3C4OC2(C(C)=CC(C)C(C(C)O)OC1=O)C3C(O)C(C)C4OC(=O)c1ccc([N+](=O)[O-])[nH]1 (centres unmarked) [U-61,427, 9-O--5-Nitropyrrole-2-carbonyl-] has an MIC of 125 µg/mL (≈ 223 µM).
In the case of COC1CC2C=CC3C4OC2(C(C)=CC(C)C(C(C)O)OC1=O)C3C(O)C(C)C4OC(=O)c1cc([N+](=O)[O-])c[nH]1 (centres unmarked) [U-61,462, 9-O--4-Nitropyrrole-2-carbonyl-], the MIC is reported as 31.2 µg/mL (≈ 55.7 µM).

These compounds were tested on Mycobacterium avium (assay: Antibiotic activity against Mycobacterium avium). Conditions: not given.
Type: cell-based
In the case of COC1CC2C=CC3C4OC2(C(C)=CC(C)C(C(C)O)OC1=O)C3C(O)C(C)C4O (centres unmarked) [U-59,761, nodusmicin], the “activity against Mycobacterium avium” value is reported as “active”.

The compounds below were run on S.aureus UC-76 (assay: Minimum Inhibitory Concentration, microplate broth-dilution, S. aureus UC-76). Conditions: Staphylococcus aureus, UC76, read-out: MIC S.aureus UC-76.
Compound COC1CC2C=CC3C4OC2(C(C)=CC(C)C(C(C)O)OC1=O)C3C(O)C(C)C4OC(=O)c1ccc(C)[nH]1 (centres unmarked) [U-61,265, 9-O--5-Methylpyrrole-2-carbonyl] has an MIC of 31.2 µg/mL (≈ 58.9 µM).

Same assay, conditions: Staphylococcus aureus, UC76, read-out: MIC S.aureus UC-76, BHI broth; sensitive strain
With COC1CC2C=CC3C4OC2(C(C)=CC(C)C(C(C)O)OC1=O)C3C(O)C(C)C4O (centres unmarked) [U-59,761, nodusmicin] the MIC was 125 µg/mL (≈ 296 µM).
For COC1CC2C=CC3C4OC2(C(C)=CC(C)C(C(C)OC(=O)c2ccc[nH]2)OC1=O)C3C(O)C(C)C4O (centres unmarked) [U-60,907, 18-O--Pyrrole-2-carbonyl], the MIC was 7.8 µg/mL (≈ 15.1 µM).
In the case of COC1CC2C=CC3C4OC2(C(C)=CC(C)C(C(C)O)OC1=O)C3C(O)C(C)C4OC(=O)c1cccn1C (centres unmarked) [U-60,988, 9-O--N--Methylpyrrole-2-carbonyl-], the MIC is reported as 250 µg/mL (≈ 472 µM).
COC1CC2C=CC3C4OC2(C(C)=CC(C)C(C(C)O)OC1=O)C3C(O)C(C)C4OC(=O)c1ccc([N+](=O)[O-])[nH]1 (centres unmarked) [U-61,427, 9-O--5-Nitropyrrole-2-carbonyl-] was tested, and the MIC was 125 µg/mL (≈ 223 µM).
COC1CC2C=CC3C4OC2(C(C)=CC(C)C(C(C)O)OC1=O)C3C(O)C(C)C4OC(=O)c1cc([N+](=O)[O-])c[nH]1 (centres unmarked) [U-61,462, 9-O--4-Nitropyrrole-2-carbonyl-] gave an MIC of 15.6 µg/mL (≈ 27.8 µM).

Each compound was assayed on C. perfringens (assay: not given). Conditions: not given.
Type: cell-based
With COC1CC2C=CC3C4OC2(C(C)=CC(C)C(C(C)O)OC1=O)C3C(O)C(C)C4O (centres unmarked) [U-59,761, nodusmicin] the “activity against C. perfringens” value was “active”.

The compounds below were run on S.aureus UC 80 (assay: Dipped disc agar diffusion assay, S. aureus). Conditions: Staphylococcus aureus, UC80, 16 h, read-out: Agar Diffusion 1 mg./ml. S.aureus UC 80 (inhibition zone).
For COC1CC2C=CC3C4OC2(C(C)=CC(C)C(C(C)O)OC1=O)C3C(O)C(C)C4OC(=O)c1ccc(C)[nH]1 (centres unmarked) [U-61,265, 9-O--5-Methylpyrrole-2-carbonyl], the zone of inhibition at 1000 µg/mL was 20 mm.

Same assay, conditions: Staphylococcus aureus, UC80, 16 h, read-out: Agar Diffusion 1 mg./ml. S.aureus UC 80 (inhibition zone), 1 mg./ml.; 12.7 mm paper disc; 16 hours
COC1CC2C=CC3C4OC2(C(C)=CC(C)C(C(C)OC(=O)c2ccc[nH]2)OC1=O)C3C(O)C(C)C4O (centres unmarked) [U-60,907, 18-O--Pyrrole-2-carbonyl] showed a zone of inhibition at 1000 µg/mL of 27 mm.
Work on COC1CC2C=CC3C4OC2(C(C)=CC(C)C(C(C)O)OC1=O)C3C(O)C(C)C4OC(=O)c1cc([N+](=O)[O-])c[nH]1 (centres unmarked) [U-61,462, 9-O--4-Nitropyrrole-2-carbonyl-] yielded a zone of inhibition at 1000 µg/mL of 20 mm.

These compounds were tested on S. lutea (assay: Antibiotic activity against S. lutea). Conditions: not given.
Type: cell-based
With COC1CC2C=CC3C4OC2(C(C)=CC(C)C(C(C)O)OC1=O)C3C(O)C(C)C4O (centres unmarked) [U-59,761, nodusmicin] the “activity against S. lutea” value was “active”.

The compounds below were run on B. fragilis (assay: Antibiotic activity against B. fragilis). Conditions: not given.
Type: cell-based
With COC1CC2C=CC3C4OC2(C(C)=CC(C)C(C(C)O)OC1=O)C3C(O)C(C)C4O (centres unmarked) [U-59,761, nodusmicin] the “activity against B. fragilis” value was “active”.

Each compound was assayed on S.pyrogenes UC-152 (assay: Minimum Inhibitory Concentration, microplate broth-dilution, S. pyrogenes UC-152). Conditions: read-out: MIC S.pyrogenes UC-152.
COC1CC2C=CC3C4OC2(C(C)=CC(C)C(C(C)O)OC1=O)C3C(O)C(C)C4OC(=O)c1ccc(C)[nH]1 (centres unmarked) [U-61,265, 9-O--5-Methylpyrrole-2-carbonyl] gave an MIC of 125 µg/mL (≈ 236 µM).

Same assay, conditions: read-out: MIC S.pyrogenes UC-152, BHI broth
Work on COC1CC2C=CC3C4OC2(C(C)=CC(C)C(C(C)O)OC1=O)C3C(O)C(C)C4O (centres unmarked) [U-59,761, nodusmicin] yielded an MIC of 500 µg/mL (≈ 1180 µM).
COC1CC2C=CC3C4OC2(C(C)=CC(C)C(C(C)OC(=O)c2ccc[nH]2)OC1=O)C3C(O)C(C)C4O (centres unmarked) [U-60,907, 18-O--Pyrrole-2-carbonyl] was tested, and the MIC was > 250 µg/mL.
COC1CC2C=CC3C4OC2(C(C)=CC(C)C(C(C)O)OC1=O)C3C(O)C(C)C4OC(=O)c1cccn1C (centres unmarked) [U-60,988, 9-O--N--Methylpyrrole-2-carbonyl-] gave an MIC of 125 µg/mL (≈ 236 µM).
COC1CC2C=CC3C4OC2(C(C)=CC(C)C(C(C)O)OC1=O)C3C(O)C(C)C4OC(=O)c1ccc([N+](=O)[O-])[nH]1 (centres unmarked) [U-61,427, 9-O--5-Nitropyrrole-2-carbonyl-] gave an MIC of 250 µg/mL (≈ 446 µM).
COC1CC2C=CC3C4OC2(C(C)=CC(C)C(C(C)O)OC1=O)C3C(O)C(C)C4OC(=O)c1cc([N+](=O)[O-])c[nH]1 (centres unmarked) [U-61,462, 9-O--4-Nitropyrrole-2-carbonyl-] showed an MIC of 125 µg/mL (≈ 223 µM).

The compounds below were run on K. pneumoniae (assay: Antibiotic activity against K. pneumoniae). Conditions: not given.
Type: cell-based
COC1CC2C=CC3C4OC2(C(C)=CC(C)C(C(C)O)OC1=O)C3C(O)C(C)C4O (centres unmarked) [U-59,761, nodusmicin] was tested, and the “activity against K. pneumoniae” value was “active”.

Each compound was assayed on S.lutea UC-130 (assay: Dipped disc agar diffusion assay, S. lutea). Conditions: Micrococcus luteus, UC130, 16 h, read-out: Agar Diffusion 1 mg./ml. S.lutea UC-130 (inhibition zone).
Compound COC1CC2C=CC3C4OC2(C(C)=CC(C)C(C(C)O)OC1=O)C3C(O)C(C)C4O (centres unmarked) [U-59,761, nodusmicin] has a zone of inhibition at 1000 µg/mL of 40 mm.
Compound COC1CC2C=CC3C4OC2(C(C)=CC(C)C(C(C)OC(=O)c2ccc[nH]2)OC1=O)C3C(O)C(C)C4O (centres unmarked) [U-60,907, 18-O--Pyrrole-2-carbonyl] has a zone of inhibition at 1000 µg/mL of 33 mm.
For COC1CC2C=CC3C4OC2(C(C)=CC(C)C(C(C)O)OC1=O)C3C(O)C(C)C4OC(=O)c1cccn1C (centres unmarked) [U-60,988, 9-O--N--Methylpyrrole-2-carbonyl-], the zone of inhibition at 1000 µg/mL was 24 mm.
COC1CC2C=CC3C4OC2(C(C)=CC(C)C(C(C)O)OC1=O)C3C(O)C(C)C4OC(=O)c1ccc(C)[nH]1 (centres unmarked) [U-61,265, 9-O--5-Methylpyrrole-2-carbonyl] gave a zone of inhibition at 1000 µg/mL of 30 mm.
In the case of COC1CC2C=CC3C4OC2(C(C)=CC(C)C(C(C)O)OC1=O)C3C(O)C(C)C4OC(=O)c1ccc([N+](=O)[O-])[nH]1 (centres unmarked) [U-61,427, 9-O--5-Nitropyrrole-2-carbonyl-], the zone of inhibition at 1000 µg/mL is reported as 32 mm.
For COC1CC2C=CC3C4OC2(C(C)=CC(C)C(C(C)O)OC1=O)C3C(O)C(C)C4OC(=O)c1cc([N+](=O)[O-])c[nH]1 (centres unmarked) [U-61,462, 9-O--4-Nitropyrrole-2-carbonyl-], the zone of inhibition at 1000 µg/mL was 36 mm.
